Assays:
Format in all cases: in vivo
[1] = tested on: palmer (palmer amaranth, palmer pigweed, Amaranthus palmeri); experiment: Test A postemergence application, visual injury rating 0-100; details: for Pigweed, Palmer plant response rating (0-100): 62 g ai/ha, postemergence, 10 days, 0 = no effect, 100 = complete control; for Pigweed, Palmer plant response rating (0 to 100 scale): Postemergence, 16 g ai/ha, greenhouse 10 days, 0 no effect, 100 complete control
Summary of the method: (§1)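 Visual injury ratings (0, no effect; 100, complete control) were assigned relative to untreated plants 10 days after treatment. Test chemicals, formulated with a surfactant-containing non-phytotoxic solvent, were applied in loam-sand soil either as a directed soil spray before emergence or to emerged plants, and plants were kept in a greenhouse.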

[2] = tested on: galium (catchweed bedstraw, Galium aparine); experiment: as above; details: for Galium plant response rating (0-100): 62 g ai/ha, postemergence, 10 days, 0 = no effect, 100 = complete control; for Galium plant response rating (0 to 100 scale): Postemergence, 16 g ai/ha, greenhouse 10 days, 0 no effect, 100 complete control
Summary of the method: as §1

[3] = tested on: barnyardgrass (Echinochloa crus-galli); experiment: as above; details: for Barnyardgrass plant response rating (0-100): 62 g ai/ha, postemergence, 10 days, 0 = no effect, 100 = complete control; for Barnyardgrass plant response rating (0 to 100 scale): Postemergence, 16 g ai/ha, greenhouse 10 days, 0 no effect, 100 complete control
Summary of the method: as §1

[4] = tested on: ryegrass, Italian (italian ryegrass, Lolium multiflorum); experiment: as above; details: for Ryegrass, Italian plant response rating (0-100): 62 g ai/ha, postemergence, 10 days, 0 = no effect, 100 = complete control; for Ryegrass, Italian plant response rating (0 to 100 scale): Postemergence, 16 g ai/ha, greenhouse 10 days, 0 no effect, 100 complete control
Summary of the method: as §1

[5] = tested on: blackgrass (Alopecurus myosuroides); experiment: as above; details: for Blackgrass plant response rating (0-100): 62 g ai/ha, postemergence, 10 days, 0 = no effect, 100 = complete control; for Blackgrass plant response rating (0 to 100 scale): Postemergence, 16 g ai/ha, greenhouse 10 days, 0 no effect, 100 complete control
Summary of the method: as §1

[6] = tested on: ragweed (common ragweed, Ambrosia artemisiifolia); experiment: as above; details: for Ragweed plant response rating (0-100): 62 g ai/ha, postemergence, 10 days, 0 = no effect, 100 = complete control; for Ragweed plant response rating (0 to 100 scale): Postemergence, 16 g ai/ha, greenhouse 10 days, 0 no effect, 100 complete control
Summary of the method: as §1

[7] = tested on: oat, wild (wild oat, Avena fatua); experiment: as above; details: for Oat, Wild plant response rating (0-100): 62 g ai/ha, postemergence, 10 days, 0 = no effect, 100 = complete control; for Oat, Wild plant response rating (0 to 100 scale): Postemergence, 16 g ai/ha, greenhouse 10 days, 0 no effect, 100 complete control
Summary of the method: as §1

[8] = tested on: wheat (Triticum aestivum); experiment: as above; details: for Wheat plant response rating (0-100): 62 g ai/ha, postemergence, 10 days, 0 = no effect, 100 = complete control; for Wheat plant response rating (0 to 100 scale): Postemergence, 16 g ai/ha, greenhouse 10 days, 0 no effect, 100 complete control
Summary of the method: as §1

[9] = tested on: corn (Zea mays); experiment: as above; details: for Corn plant response rating (0-100): 62 g ai/ha, postemergence, 10 days, 0 = no effect, 100 = complete control; for Corn plant response rating (0 to 100 scale): Postemergence, 16 g ai/ha, greenhouse 10 days, 0 no effect, 100 complete control
Summary of the method: as §1

[10] = tested on: soybean (Glycine max); experiment: as above; details: for Soybean plant response rating (0-100): 62 g ai/ha, postemergence, 10 days, 0 = no effect, 100 = complete control; for Soybean plant response rating (0 to 100 scale): Postemergence, 16 g ai/ha, greenhouse 10 days, 0 no effect, 100 complete control
Summary of the method: as §1

[11] = tested on: green foxtail (Setaria viridis); experiment: as above; details: for Foxtail, Green plant response rating (0-100): 62 g ai/ha, postemergence, 10 days, 0 = no effect, 100 = complete control; for Foxtail, Green plant response rating (0 to 100 scale): Postemergence, 16 g ai/ha, greenhouse 10 days, 0 no effect, 100 complete control
Summary of the method: as §1

[12] = tested on: kochia (Bassia scoparia); experiment: as above; details: for Kochia plant response rating (0-100): 62 g ai/ha, postemergence, 10 days, 0 = no effect, 100 = complete control; for Kochia plant response rating (0 to 100 scale): Postemergence, 16 g ai/ha, greenhouse 10 days, 0 no effect, 100 complete control
Summary of the method: as §1

[13] = tested on: barnyardgrass (Echinochloa crusgalli); experiment: Test B flooded paddy test, visual plant response rating 0-100; details: 250 g ai/ha, Flood, applied to paddy water, evaluated after 13 days
Summary of the method: (§2)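 Compounds applied to standing paddy water (3 cm above soil, maintained for the test duration) on 2-leaf-stage plants; visual rating vs controls at 13 days, greenhouse.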

[14] = tested on: sedge, umbrella (small-flower umbrella sedge, Cyperus difformis); experiment: as above; details: 250 g ai/ha, Flood, applied to paddy water, evaluated after 13 days
Summary of the method: as §2

[15] = tested on: ducksalad (Heteranthera limosa); experiment: as above; details: 250 g ai/ha, Flood, applied to paddy water, evaluated after 13 days
Summary of the method: as §2

[16] = tested on: rice (Oryza sativa); experiment: as above; details: 250 g ai/ha, Flood, applied to paddy water, evaluated after 13 days
Summary of the method: as §2

[17] = tested on: palmer (palmer amaranth, palmer pigweed, Amaranthus palmeri); experiment: Test A preemergence soil spray, visual injury rating 0-100; details: 10 days; for Pigweed, Palmer plant response rating: 16 g ai/ha, 0 to 100 scale; for Pigweed, Palmer plant response rating (0-100): 62 g ai/ha, 0 = no effect, 100 = complete control
Summary of the method: as §1

[18] = tested on: barnyardgrass (Echinochloa crus-galli); experiment: as above; details: 10 days; for Barnyardgrass plant response rating: 16 g ai/ha, 0 to 100 scale; for Barnyardgrass plant response rating (0-100): 62 g ai/ha, 0 = no effect, 100 = complete control
Summary of the method: as §1

[19] = tested on: ryegrass, Italian (italian ryegrass, Lolium multiflorum); experiment: as above; details: 10 days; for Ryegrass, Italian plant response rating: 16 g ai/ha, 0 to 100 scale; for Ryegrass, Italian plant response rating (0-100): 62 g ai/ha, 0 = no effect, 100 = complete control
Summary of the method: as §1

[20] = tested on: blackgrass (Alopecurus myosuroides); experiment: as above; details: 10 days; for Blackgrass plant response rating: 16 g ai/ha, 0 to 100 scale; for Blackgrass plant response rating (0-100): 62 g ai/ha, 0 = no effect, 100 = complete control
Summary of the method: as §1

[21] = tested on: ragweed (common ragweed, Ambrosia artemisiifolia); experiment: as above; details: 10 days; for Ragweed plant response rating: 16 g ai/ha, 0 to 100 scale; for Ragweed plant response rating (0-100): 62 g ai/ha, 0 = no effect, 100 = complete control
Summary of the method: as §1

[22] = tested on: oat, wild (wild oat, Avena fatua); experiment: as above; details: 10 days; for Oat, Wild plant response rating: 16 g ai/ha, 0 to 100 scale; for Oat, Wild plant response rating (0-100): 62 g ai/ha, 0 = no effect, 100 = complete control
Summary of the method: as §1

[23] = tested on: wheat (Triticum aestivum); experiment: as above; details: 10 days; for Wheat plant response rating: 16 g ai/ha, 0 to 100 scale; for Wheat plant response rating (0-100): 62 g ai/ha, 0 = no effect, 100 = complete control
Summary of the method: as §1

[24] = tested on: corn (Zea mays); experiment: as above; details: 10 days; for Corn plant response rating: 16 g ai/ha, 0 to 100 scale; for Corn plant response rating (0-100): 62 g ai/ha, 0 = no effect, 100 = complete control
Summary of the method: as §1

[25] = tested on: soybean (Glycine max); experiment: as above; details: 10 days; for Soybean plant response rating: 16 g ai/ha, 0 to 100 scale; for Soybean plant response rating (0-100): 62 g ai/ha, 0 = no effect, 100 = complete control
Summary of the method: as §1

[26] = tested on: green foxtail (Setaria viridis); experiment: as above; details: 10 days; for Foxtail, Green plant response rating: 16 g ai/ha, 0 to 100 scale; for Foxtail, Green plant response rating (0-100): 62 g ai/ha, 0 = no effect, 100 = complete control
Summary of the method: as §1

[27] = tested on: kochia (Bassia scoparia); experiment: as above; details: 10 days; for Kochia plant response rating: 16 g ai/ha, 0 to 100 scale; for Kochia plant response rating (0-100): 62 g ai/ha, 0 = no effect, 100 = complete control
Summary of the method: as §1

C=CC1(C(=O)NC2COC(C(=O)OC)C2)CN(c2cc(F)cc(F)c2)C(=O)O1 (stereo not shown) [Compound 170]
40: Galium plant response rating (0-100) [2]
10: Ryegrass, Italian plant response rating [19]
20: Ryegrass, Italian plant response rating (0-100) [19]
30: Barnyardgrass plant response rating (0-100) [3] | Soybean plant response rating (0-100) [10]
0: Pigweed, Palmer plant response rating (0-100) [1] | Pigweed, Palmer plant response rating (0 to 100 scale) [1] | Galium plant response rating (0 to 100 scale) [2] | Barnyardgrass plant response rating (0 to 100 scale) [3] | Ryegrass, Italian plant response rating (0-100) [4] | Ryegrass, Italian plant response rating (0 to 100 scale) [4] | Blackgrass plant response rating (0-100) [5] | Blackgrass plant response rating (0 to 100 scale) [5] | Ragweed plant response rating (0-100) [6] | Ragweed plant response rating (0 to 100 scale) [6] | Oat, Wild plant response rating (0-100) [7] | Oat, Wild plant response rating (0 to 100 scale) [7] | Wheat plant response rating (0-100) [8] | Wheat plant response rating (0 to 100 scale) [8] | Corn plant response rating (0-100) [9] | Corn plant response rating (0 to 100 scale) [9] | Soybean plant response rating (0 to 100 scale) [10] | Foxtail, Green plant response rating (0-100) [11] | Foxtail, Green plant response rating (0 to 100 scale) [11] | Kochia plant response rating (0-100) [12] | Kochia plant response rating (0 to 100 scale) [12] | Plant response rating, Barnyardgrass (0 to 100 scale, 0 is no effect and 100 is complete control) [13] | Plant response rating, Sedge, Umbrella (0 to 100 scale, 0 is no effect and 100 is complete control) [14] | Plant response rating, Ducksalad (0 to 100 scale, 0 is no effect and 100 is complete control) [15] | Plant response rating, Rice (0 to 100 scale, 0 is no effect and 100 is complete control) [16] | Pigweed, Palmer plant response rating [17] | Pigweed, Palmer plant response rating (0-100) [17] | Barnyardgrass plant response rating [18] | Barnyardgrass plant response rating (0-100) [18] | Blackgrass plant response rating [20] | Blackgrass plant response rating (0-100) [20] | Ragweed plant response rating [21] | Ragweed plant response rating (0-100) [21] | Oat, Wild plant response rating [22] | Oat, Wild plant response rating (0-100) [22] | Wheat plant response rating [23] | Wheat plant response rating (0-100) [23] | Corn plant response rating [24] | Corn plant response rating (0-100) [24] | Soybean plant response rating [25] | Soybean plant response rating (0-100) [25] | Foxtail, Green plant response rating [26] | Foxtail, Green plant response rating (0-100) [26] | Kochia plant response rating [27] | Kochia plant response rating (0-100) [27]

C=CC1(C(=O)NC2COC(C(=O)OC)C2)CN(c2cc(F)cc(F)c2)C(=O)O1 (stereo not shown) [Compound 171]
0: Pigweed, Palmer plant response rating [17] | Barnyardgrass plant response rating [18] | Ragweed plant response rating [21] | Ragweed plant response rating (0-100) [21] | Corn plant response rating [24] | Soybean plant response rating [25] | Foxtail, Green plant response rating [26]
50: Plant response rating, Ducksalad (0 to 100 scale, 0 is no effect and 100 is complete control) [15]
80: Pigweed, Palmer plant response rating (0-100) [1] | Galium plant response rating (0-100) [2] | Galium plant response rating (0 to 100 scale) [2] | Barnyardgrass plant response rating (0-100) [3] | Wheat plant response rating (0 to 100 scale) [8] | Corn plant response rating (0 to 100 scale) [9] | Soybean plant response rating (0-100) [10] | Foxtail, Green plant response rating (0 to 100 scale) [11] | Kochia plant response rating (0-100) [12]
20: Ryegrass, Italian plant response rating (0 to 100 scale) [4] | Ryegrass, Italian plant response rating [19] | Blackgrass plant response rating [20] | Oat, Wild plant response rating [22] | Soybean plant response rating (0-100) [25]
60: Pigweed, Palmer plant response rating (0 to 100 scale) [1] | Kochia plant response rating (0 to 100 scale) [12] | Plant response rating, Barnyardgrass (0 to 100 scale, 0 is no effect and 100 is complete control) [13] | Wheat plant response rating [23]
70: Barnyardgrass plant response rating (0 to 100 scale) [3] | Ryegrass, Italian plant response rating (0-100) [4] | Blackgrass plant response rating (0-100) [5] | Blackgrass plant response rating (0 to 100 scale) [5] | Soybean plant response rating (0 to 100 scale) [10] | Pigweed, Palmer plant response rating (0-100) [17]
40: Corn plant response rating (0-100) [24] | Kochia plant response rating (0-100) [27]
90: Oat, Wild plant response rating (0-100) [7] | Oat, Wild plant response rating (0 to 100 scale) [7] | Wheat plant response rating (0-100) [8] | Corn plant response rating (0-100) [9] | Foxtail, Green plant response rating (0-100) [11] | Barnyardgrass plant response rating (0-100) [18] | Ryegrass, Italian plant response rating (0-100) [19] | Blackgrass plant response rating (0-100) [20] | Oat, Wild plant response rating (0-100) [22] | Wheat plant response rating (0-100) [23] | Foxtail, Green plant response rating (0-100) [26]
45: Plant response rating, Sedge, Umbrella (0 to 100 scale, 0 is no effect and 100 is complete control) [14] | Plant response rating, Rice (0 to 100 scale, 0 is no effect and 100 is complete control) [16]
30: Ragweed plant response rating (0-100) [6] | Ragweed plant response rating (0 to 100 scale) [6] | Kochia plant response rating [27]
